The METLIN SMRT retention time set (Domingo-Almenara et al. 2019)

Assay: gradient 5% acetonitrile 3 min, to 50% in 2 min, to 85% in 15 min, held 3 min, 100 µL/min
Conditions: column: Zorbax Extend-C18 2.1 x 50 mm; eluents: water / acetonitrile, 0.1% formic acid
In short: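 Standards, all pure, were combined into mixtures of ~100 molecules and run at 100 μL/min on a Zorbax Extend-C18 column (2.1 × 50 mm, 1.8 μm) with water and acetonitrile, each containing 0.1% formic acid. A coupled quadrupole time-of-flight mass spectrometer operated in positive and negative ionization mode. Retention time values come from computationally picked adduct peaks, each inspected manually.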

RP-LC retention time [s]	SMILES
742	COc1ccc(CNC(=O)c2nc3cccnc3n(C)c2=O)cc1
624	CC(C)=CCC/C(C)=C/CNCCNC1C2CC3CC(C2)CC1C3 (stereo not drawn)
953	Cn1cc(S(=O)(=O)N2CCCCC2)cc1C(=O)NC1CCCCC1
592	CCN1CCN(CCNC(=O)c2c(N3CCCC3=O)c3cc(OC)ccc3n2C)CC1
1100	COc1ccc(S(=O)(=O)N2CC(C(=O)NC3CCCC3)Oc3cc(C)ccc32)cc1 (stereo not drawn)
618	CCN1CCC2(CC1)N=C(c1ccc(Br)cc1)CC(c1cccc(OC)c1O)N2 (stereo not drawn)
610	COC(=O)c1c(C)[nH]c(C(=O)N2CCCC(C(=O)NCCN3CCCCCC3)C2)c1C (stereo not drawn)
1050	Cc1cc(NC(=O)NC2CCN(c3nc4ccccc4n(C)c3=O)CC2)ccc1Br
804	COc1ccc(NC(=O)N2CCc3nc(-c4ccccc4)ncc3C2)cc1OC
968	Cc1cccc(-n2c(=O)c3c(cc(C)n3C)n(CC(=O)Nc3ccc(C(F)(F)F)cc3)c2=O)c1
711	COc1cc(NC(=O)N2CCC(c3nc(C(=O)N(C)C)c(C)o3)CC2)cc(OC)c1
963	CCOc1ccc(N2C(=O)C3N=NN(Cc4nc(-c5ccc6c(c5)OCO6)no4)C3C2=O)cc1 (stereo not drawn)
727	CCN1C(=O)Cc2ccccc2C1C(=O)NCc1ccc2c(c1)OCO2 (stereo not drawn)
1140	CCc1nc2cc(-c3noc(Cc4ccc(Cl)cc4)n3)ccc2o1
1010	CCc1nn(CC)c(=O)c2cc(S(=O)(=O)NCc3ccc(F)c(Cl)c3)cn12
742	CCc1ccc(C2=C(C)C(N3CCCN(C(=O)COC)CC3)=NS2(=O)=O)cc1
729	COc1ccc(NC(=O)N2C[C@@H]3C[C@H]2C[C@@H]3NC(=O)c2cccs2)cc1F
693	Cc1nn(C)c(C)c1CNC(=O)CN1C(=O)C2CCCCN2c2ccc(S(=O)(=O)N(C)C)cc21 (stereo not drawn)
724	Cc1ccc(CN2C(=O)C3CCCCC3C2=O)cc1S(=O)(=O)N1CCN(c2ccccn2)CC1 (stereo not drawn)
863	Cc1oc2cc3oc(=O)c(CC(=O)N[C@@H](Cc4c[nH]c5ccccc45)C(=O)O)c(C)c3cc2c1C
621	CCC(=O)N1CCCCCNC(=O)[C@@H]2CCC[C@@H]21
1060	Cc1cc2nn(CC(=O)NCc3ccccc3)c(=O)n2c(Nc2ccc(C)c(C)c2)n1

RP-LC retention time [s]	SMILES
997	Cc1ccc(C(=O)Nc2ccc3c(c2)Sc2ncccc2C(=O)N3C(C)C)cc1C
806	CC(C)(C)c1ccc(C(=O)NCc2cnn3ccccc23)cc1
613	NC(=O)CNC(=O)c1nc(-c2ccsc2)nc2c1OCCO2
654	O=C(NC1CC1)C1CCc2sc(C(=O)N3CCCC3)cc2C1 (stereo not drawn)
657	CC(C)CCN(CC(=O)N1CCNCC1)C(=O)c1ccc(Br)cc1
721	Cc1ccc(NS(=O)(=O)c2cc(-c3[nH]ncc3C(=O)N3CCOCC3)oc2C)c(C)c1
821	COc1ccc2nc(C(=O)NC(C)c3ccc(F)cc3)cn2n1 (stereo not drawn)
884	Cc1ccc(NC(=O)Cn2ncc3c(c2=O)N(CC2CC2)C(=O)CS3)cc1Cl
905	COc1ccccc1NC(=O)C1C(=O)NC2(C)CC1c1ccccc1O2 (stereo not drawn)
1230	Cc1cccc(Sc2nccnc2N2CCCC(C(=O)NC3CCCCCC3)C2)c1 (stereo not drawn)
663	Cc1ccc(CNC(=O)CC2CCOCC2)o1
847	Cc1ccccc1Nc1c(-c2cccc(N(C)C)c2)nc2ccc(Br)cn12
912	O=C(Nc1ccccc1)c1cccc(N2CC(C(=O)Nc3cccc(Cl)c3)CC2=O)c1 (stereo not drawn)
956	Cc1cc(OCC(=O)Nc2ccc(F)c(Cl)c2)nc(N2CCN(c3ccccc3)CC2)n1
704	CCC(=O)N1CCc2cc(S(=O)(=O)CCC(=O)N3CCN(c4ccc(C)cc4)C(C)C3)ccc21 (stereo not drawn)
868	CCCN(CC1CCOC1)S(=O)(=O)c1cc(F)ccc1OC (stereo not drawn)
730	O=C(Cc1nnc(-c2ccc3ncccc3c2)o1)Nc1ccc(F)cc1Cl
1170	CC1=NS(=O)(=O)N(Cc2ccccc2)C=C1C(=O)OCc1ccc(C)cc1
921	CC(C)c1ccc(OCC(=O)Nc2cc3c(cc2N2CCOCC2)n(C)c(=O)c(=O)n3C)cc1
608	O=C(c1ccccc1)N1CCc2sc(C(=O)N3CCN(c4ccccn4)CC3)cc2C1
713	Cc1ccc(C)c(NC(=O)Cn2cnc3nc(N4CCC(C(=O)NC5CC5)CC4)sc3c2=O)c1
570	COc1cc(CCC(=O)N2CC(c3noc(C4CCCN4C)n3)C2)on1 (stereo not drawn)

RP-LC retention time [s]	SMILES
903	Cn1nc(-c2nnc(-c3ccccc3F)o2)c2c1CCN(S(=O)(=O)c1ccc(F)cc1)C2
1070	CCOc1nc2ccccc2nc1N1CCCC(C(=O)N2CCCC2)C1 (stereo not drawn)
664	Cc1cc(C)c(S(=O)(=O)NC(C)Cn2cncn2)c(C)c1 (stereo not drawn)
602	COc1ccc(-c2cc(N3CCN(C(=O)NC(C)C)CC3)ncn2)cc1OC
1040	Cc1ccccc1NC(=O)Cc1cccn1-c1ccc(Cl)cc1
994	Cn1c(Nc2ccc(C(F)(F)F)cc2)nc2cc(Oc3ccnc(-c4ncc(C(F)(F)F)[nH]4)c3)ccc21
656	CCc1nccn1Cc1noc(-c2cccc(Cl)c2)n1
1170	Cc1ccc(-c2nnc(Cc3nc(-c4cccc(Cl)c4)no3)o2)cc1F
1010	CCCNS(=O)(=O)c1ccc(Cl)c(-c2nnc(-c3ccccc3)o2)c1
812	COCCn1cc(CCNC(=O)Nc2ccc(C)c(Cl)c2)c2cccnc21
693	CSc1ccc(-c2nc3ccc(C)cn3c2Nc2ccc(Cl)cc2)cc1
732	CCNC(=O)C1(C)CC(c2ccccc2)=NO1 (stereo not drawn)
848	CCN1c2ccc(F)cc2C(=O)NC12CCN(C(=O)Cc1ccc(Cl)cc1)CC2
788	Cc1cc(C)c(C(=O)N2CCCC(C(=O)NCCC(C)C)C2)[nH]1 (stereo not drawn)
1030	O=C(Nc1nc2c(s1)CCCC2)c1cccc(C(F)(F)F)c1
1090	CCc1cccc(NC(=O)CSc2cc(N3CCN(c4ccccc4OC)CC3)ncn2)c1
784	Cc1cccc(Cn2c(=O)n(CCNC(=O)C3CCC3)c3ncccc32)c1
845	CC1=C(c2ccc(Cl)cc2)S(=O)(=O)N=C1N1CCCN(C(=O)NCC(C)C)CC1
831	Cc1ccc(-c2noc(-c3cccc(S(=O)(=O)NCCN4CCC(C)CC4)c3)n2)cc1
913	Cc1ccc([N+](=O)[O-])cc1NC(=O)c1cccc([N+](=O)[O-])c1O
703	Cc1ccc(NC(=O)Cn2cnc3nc(N4CCC(C(=O)NC5CC5)CC4)sc3c2=O)cc1F
740	COC(=O)c1ccc(NC(=O)CC(C)S(=O)(=O)c2ccc3c(c2)NC(=O)CCS3)cc1 (stereo not drawn)

RP-LC retention time [s]	SMILES
663	O=C(NCCS(=O)(=O)N1CCN(c2ncccn2)CC1)c1cccs1
945	COc1ccc(NC(=O)N2CC(C)Oc3ccc(C)cc32)cc1 (stereo not drawn)
678	Cc1cc2[nH]c(C(=O)Nc3ccc(F)cc3Br)c(CN(C)C)c2s1
978	O=C(CSCc1ccccc1)Nc1ccccc1Cl
760	O=C(NCCCc1ccccc1)C1CCN(c2nnc3ccc(Cl)cn23)CC1
608	CC(=O)Nc1ccc(S(=O)(=O)N=S(C)C)cc1
564	Cc1noc(C)c1CCC(=O)N1CCC(c2nc(C3CC3)n[nH]2)CC1
1020	Cc1cc(C)cc(NC(=O)C2CCN(S(=O)(=O)c3cc(-c4noc(C5CC5)n4)cs3)CC2)c1
824	CC(C)c1noc(C2CCCCN2Cc2nc(-c3ccccn3)no2)n1 (stereo not drawn)
890	O=C(c1cnn2c(-c3ccc4c(c3)OCO4)ccnc12)N1CCN(c2ccc(F)cc2)CC1
705	CCC(C)(C)NC(=O)c1ccc2c(c1)N(C(=O)NC)CC2
1150	O=c1c2cc(-c3cccs3)nn2cnn1Cc1nc(-c2cccc(Br)c2)no1
596	COC(=O)c1ccccc1NC(=O)N1CCc2nc[nH]c2C1
1060	COc1ccccc1-c1cc2c(=O)n(Cc3nc(-c4cccc(OC)c4OC)oc3C)ccn2n1
907	CC1CCN(S(=O)(=O)c2ccc3c(c2)CCCC(=O)N3CC(=O)NCc2ccccc2)CC1
861	O=S(=O)(c1ccc2nncn2c1)N(Cc1cc(F)cc(F)c1)c1ccccc1
778	CN(C)c1ccc(C(=O)NCc2nn(C)c3ccccc23)cc1
591	Cc1onc(-c2ccccc2Cl)c1C(=O)NCCN(C)C
1270	O=C(Cc1csc(-c2ccccc2)n1)Nc1nc(-c2cccc(Br)c2)cs1
1090	Cc1ccc(-c2nnc(-c3ccccc3Cl)o2)cc1S(=O)(=O)N1CCCC1
741	Cc1ccc(Sc2ccc(N3CCC(C(=O)N4CCN(c5ncccn5)CC4)CC3)nn2)cc1

SMILES	RP-LC retention time [s]
C=C[C@]12CN(C)C3C4COC(CC41)[C@]1(C(=O)Nc4ccccc41)[C@@H]32 (stereo partly drawn)	551
